Laboratory results reported in US11154060B2, “Microbiocidal oxadiazole derivatives” (SYNGENTA PARTICIPATIONS AG, priority 2016, dated 2021).

What was measured:
[1] = tested on: Puccinia recondita f. sp. tritici; assay: Puccinia recondita f. sp. tritici / wheat / leaf disc curative (brown rust); type: in vivo; conditions: foliar, wheat leaf segments cv. Kanzler, applied 1 day after inoculation, assessed 6-8 days after application, read-out: control of Puccinia recondita f. sp. tritici compared to untreated control
Procedure: Leaf disks or leaf segments of various plant species are cut from plants grown in a greenhouse. The cut leaf disks or segments are placed in multiwell plates (24-well format) onto water agar. The leaf disks are sprayed with a test solution before (preventative) or after (curative) inoculation. Compounds to be tested are prepared as DMSO solutions (max. 10 mg/ml) which are diluted to the appropriate concentration with 0.025% Tween20 just before spraying. The inoculated leaf disks or segments are incubated under defined conditions (temperature, relative humidity, light, etc.) according to the respective test system. A single evaluation of disease level is carried out 3 to 14 days after inoculation, depending on the pathosystem. Percent disease control relative to the untreated check leaf disks or segments is then calculated. Wheat leaf segments cv. Kanzler are placed on agar in multiwell plates (24-well format). The leaf segments are inoculated with a spore suspension of the fungus. Plates are stored in darkness at 19° C. and 75% rh. The formulated test compound diluted in water is applied 1 day after inoculation. The leaf segments are incubated at 19° C. and 75% rh under a light regime of 12 h light/12 h darkness in a climate cabinet and the activity of a compound is assessed as percent disease control compared to untreated when an appropriate level of disease damage appears in untreated check leaf segments (6-8 days after application).

[2] = tested on: Glomerella lagenarium (Colletotrichum lagenarium); assay: Glomerella lagenarium (Colletotrichum lagenarium) liquid culture / cucumber / preventative (anthracnose); type: cell-based; conditions: Colletotrichum orbiculare, liquid culture in PDB, 24° C., 3-4 days after application, read-out: control of Glomerella lagenarium compared to untreated control (inhibition of growth, photometric)
Procedure: Mycelia fragments or conidia suspensions of a fungus prepared either freshly from liquid cultures of the fungus or from cryogenic storage, are directly mixed into nutrient broth. DMSO solutions of the test compound (max. 10 mg/ml) are diluted with 0.025% Tween20 by a factor of 50 and 10 μl of this solution is pipetted into a microtiter plate (96-well format). The nutrient broth containing the fungal spores/mycelia fragments is then added to give an end concentration of the tested compound. The test plates are incubated in the dark at 24° C. and 96% relative humidity. The inhibition of fungal growth is determined photometrically after 2 to 7 days, depending on the pathosystem, and percent antifungal activity relative to the untreated check is calculated. Conidia of the fungus from cryogenic storage are directly mixed into nutrient broth (PDB potato dextrose broth). After placing a (DMSO) solution of test compound into a microtiter plate (96-well format), the nutrient broth containing the fungal spores is added. The test plates are incubated at 24° C. and the inhibition of growth is measured photometrically 3-4 days after application.

[3] = tested on: Phakopsora pachyrhizi; assay: Phakopsora pachyrhizi / soybean / leaf disc preventative (Asian soybean rust); type: in vivo; conditions: foliar, soybean leaf disks, inoculated one day after application, assessed 12-14 days after application, read-out: control of Phakopsora pachyrhizi compared to untreated control
Procedure: Leaf disks or leaf segments of various plant species are cut from plants grown in a greenhouse. The cut leaf disks or segments are placed in multiwell plates (24-well format) onto water agar. The leaf disks are sprayed with a test solution before (preventative) or after (curative) inoculation. Compounds to be tested are prepared as DMSO solutions (max. 10 mg/ml) which are diluted to the appropriate concentration with 0.025% Tween20 just before spraying. The inoculated leaf disks or segments are incubated under defined conditions (temperature, relative humidity, light, etc.) according to the respective test system. A single evaluation of disease level is carried out 3 to 14 days after inoculation, depending on the pathosystem. Percent disease control relative to the untreated check leaf disks or segments is then calculated. Soybean leaf disks are placed on water agar in multiwell plates (24-well format) and sprayed with the formulated test compound diluted in water. One day after application leaf discs are inoculated by spraying a spore suspension on the lower leaf surface. After an incubation period in a climate cabinet of 24-36 hours in darkness at 20° C. and 75% rh leaf disc are kept at 20° C. with 12 h light/12 h darkness and 75% rh. The activity of a compound is assessed as percent disease control compared to untreated when an appropriate level of disease damage appears in untreated check leaf disks (12-14 days after application).

[4] = tested on: Puccinia recondita f. sp. tritici; assay: Puccinia recondita f. sp. tritici / wheat / leaf disc preventative (brown rust); type: in vivo; conditions: foliar, wheat leaf segments cv. Kanzler, inoculated 1 day after application, assessed 7-9 days after application, read-out: control of Puccinia recondita f. sp. tritici compared to untreated control
Procedure: Leaf disks or leaf segments of various plant species are cut from plants grown in a greenhouse. The cut leaf disks or segments are placed in multiwell plates (24-well format) onto water agar. The leaf disks are sprayed with a test solution before (preventative) or after (curative) inoculation. Compounds to be tested are prepared as DMSO solutions (max. 10 mg/ml) which are diluted to the appropriate concentration with 0.025% Tween20 just before spraying. The inoculated leaf disks or segments are incubated under defined conditions (temperature, relative humidity, light, etc.) according to the respective test system. A single evaluation of disease level is carried out 3 to 14 days after inoculation, depending on the pathosystem. Percent disease control relative to the untreated check leaf disks or segments is then calculated. Wheat leaf segments cv. Kanzler are placed on agar in multiwell plates (24-well format) and sprayed with the formulated test compound diluted in water. The leaf disks are inoculated with a spore suspension of the fungus 1 day after application. The inoculated leaf segments are incubated at 19° C. and 75% rh under a light regime of 12 h light/12 h darkness in a climate cabinet and the activity of a compound is assessed as percent disease control compared to untreated when an appropriate level of disease damage appears in untreated check leaf segments (7-9 days after application).

Row | Structure (SMILES) | pest or weed control at 200 ppm [1] [%] | inhibition at 20 ppm [2] [%] | melting point [°C] | pest or weed control at 200 ppm [3] [%] | pest or weed control at 200 ppm [4] [%]
1 | O=C(NOCc1ccccc1)c1ccc(-c2noc(C(F)(F)F)n2)c(F)c1 [Compound 1.16, N-benzyloxy-3-fluoro-4-[5-(trifluoromethyl)-1,2,4-oxadiazol-3-yl]benzamide] | ≥ 80 | ≥ 80 | 178 to 181 | ≥ 80 | ≥ 80
2 | O=C(Cc1ccc(-c2noc(C(F)(F)F)n2)cc1)NOCC(F)F [Compound 2.17, N-(2,2-difluoroethoxy)-2-[4-[5-(trifluoromethyl)-1,2,4-oxadiazol-3-yl]phenyl]acetamide] | ≥ 80 | ≥ 80 | 140 to 146 | ≥ 80 | ≥ 80
3 | CON(C)C(=O)Cc1ccc(-c2noc(C(F)(F)F)n2)cc1F [Compound 1.19, 2-[2-fluoro-4-[5-(trifluoromethyl)-1,2,4-oxadiazol-3-yl]phenyl]-N-methoxy-N-methyl-acetamide] | ≥ 80 | ≥ 80 | 104 to 106 | ≥ 80 | ≥ 80
4 | CCONC(=O)Cc1ccc(-c2noc(C(F)(F)F)n2)cc1 [Compound 2.16, N-ethoxy-2-[4-[5-(trifluoromethyl)-1,2,4-oxadiazol-3-yl]phenyl]acetamide] | ≥ 80 | ≥ 80 | 171 to 183 | ≥ 80 | ≥ 80
5 | O=C(NOCC(F)F)c1ccc(-c2noc(C(F)(F)F)n2)c(F)c1 [Compound 1.14, N-(2,2-difluoroethoxy)-3-fluoro-4-[5-(trifluoromethyl)-1,2,4-oxadiazol-3-yl]benzamide] | ≥ 80 | ≥ 80 | 138 to 140 |  | ≥ 80
6 | CCONC(=O)Cc1ccc(-c2noc(C(F)(F)F)n2)c(F)c1 [Compound 1.22, N-ethoxy-2-[3-fluoro-4-[5-(trifluoromethyl)-1,2,4-oxadiazol-3-yl]phenyl]acetamide] | ≥ 80 | ≥ 80 | 150 to 152 | ≥ 80 | ≥ 80
7 | CONC(=O)Cc1ccc(-c2noc(C(F)(F)F)n2)cc1 [Compound 2.13, N-methoxy-2-[4-[5-(trifluoromethyl)-1,2,4-oxadiazol-3-yl]phenyl]acetamide] | ≥ 80 | ≥ 80 | 131 to 138 | ≥ 80 | ≥ 80
8 | CONC(=O)Cc1ccc(-c2noc(C(F)(F)F)n2)cc1F [Compound 1.20, 2-[2-fluoro-4-[5-(trifluoromethyl)-1,2,4-oxadiazol-3-yl]phenyl]-N-methoxy-acetamide] | ≥ 80 | ≥ 80 | 150 to 152 |  | ≥ 80
9 | CCONC(=O)Cc1ccc(-c2noc(C(F)(F)F)n2)cc1F [Compound 1.21, N-ethoxy-2-[2-fluoro-4-[5-(trifluoromethyl)-1,2,4-oxadiazol-3-yl]phenyl]acetamide] | ≥ 80 | ≥ 80 | 81 to 83 |  | ≥ 80
10 | O=C(NOCC(F)F)c1ccc(-c2noc(C(F)(F)F)n2)cc1 [Compound 2.18, N-(2,2-difluoroethoxy)-4-[5-(trifluoromethyl)-1,2,4-oxadiazol-3-yl]benzamide] | ≥ 80 | ≥ 80 | 134 to 137 |  | ≥ 80
11 | C=CCONC(=O)Cc1ccc(-c2noc(C(F)(F)F)n2)cc1 [Compound 2.14, N-allyloxy-2-[4-[5-(trifluoromethyl)-1,2,4-oxadiazol-3-yl]phenyl]acetamide] |  | ≥ 80 | 153 to 158 |  | ≥ 80
12 | O=C(Cc1ccc(-c2noc(C(F)(F)F)n2)cc1F)NOCC(F)F [Compound 1.23, N-(2,2-difluoroethoxy)-2-[2-fluoro-4-[5-(trifluoromethyl)-1,2,4-oxadiazol-3-yl]phenyl]acetamide] | ≥ 80 | ≥ 80 | 114 to 116 |  | ≥ 80
13 | CONC(=O)Cc1ccc(-c2noc(C(F)(F)F)n2)c(F)c1 [Compound 1.17, 2-[3-fluoro-4-[5-(trifluoromethyl)-1,2,4-oxadiazol-3-yl]phenyl]-N-methoxy-acetamide] | ≥ 80 | ≥ 80 | 131 to 133 | ≥ 80 | ≥ 80
14 | C=CCONC(=O)c1ccc(-c2noc(C(F)(F)F)n2)c(F)c1 [Compound 1.15, N-allyloxy-3-fluoro-4-[5-(trifluoromethyl)-1,2,4-oxadiazol-3-yl]benzamide] | ≥ 80 | ≥ 80 | 132 to 136 |  | ≥ 80
